From patent US20050090529A1, “3,5 Disubstituted indazole compounds with nitrogen-bearing 5-membered heterocycles, pharmaceutical compositions, and methods for mediating or inhibiting cell proliferation” (PFIZER INC, priority 2003, published 2005)

System: Cyclin-dependent kinase
Assay: Cyclin-dependent kinase inhibition, % inhibition at 10 nM (library Examples 99-270)
Assay type: biochemical
Conditions: 10 nM compound
Protocol: Cyclin-dependent kinase activity was measured by quantifying the enzyme-catalyzed, time-dependent incorporation of radioactive phosphate from [^32P]ATP or [^33P]ATP into a protein substrate. Unless noted otherwise, assays were performed in 96-well plates in a total volume of 50 μL, in the presence of 10 mM HEPES (N-[2-hydroxyethyl]piperazine-N′-[2-ethanesulfonic acid]) (pH 7.4), 10 mM MgCl2, 25 μM adenosine triphosphate (ATP), 1 mg/mL ovalbumin, 5 μg/mL leupeptin, 1 mM dithiothreitol, 10 mM beta-glycerophosphate, 0.1 mM sodium vanadate, 1 mM sodium fluoride, 2.5 mM ethylene glycol-bis(β-aminoethyl ethKer)-N,N,N′N′-tetraacetic acid (EGTA), 2% (v/v) dimethylsulfoxide, and 0.03-0.4 μCi [^32/33P]ATP per reaction. Reactions were initiated with enzyme, incubated at 30° C., and terminated after 20 minutes by the addition of ethylenediaminetetraacetic acid (EDTA) to 250 mM. The phosphorylated substrate was then captured on a nitrocellulose or phosphocellulose membrane using a 96-well filtration manifold, and unincorporated radioactivity was removed by repeated washing with 0.85% phosphoric acid. Radioactivity was quantified by exposing the dried membranes to a phosphorimager.
Results of assays performed on compounds, which include the specific examples described above are provided in Examples 99-274 above, and in Table 1 below. Unless indicated otherwise in a particular entry, the units and assays used are as indicated in the applicable column of the table.

| % Inhib @ 10 nM [%] | SMILES |
| --- | --- |
| 74 | CCNCc1cncc(-c2ccc3[nH]nc(-c4ncc(C(=O)N5CCc6nc(C)sc6C5)[nH]4)c3c2)c1C [Example 234, ethyl{[4-methyl-5-(3-{5-[(2-methyl-6,7-dihydro[1,3]thiazolo[5,4-c]pyridin-5-(4H)-yl)carbonyl]-1H-imidazol-2-yl)-1H-indazol-5-yl)pyridin-3-yl]methyl}amine] |
| 34 | CCNCc1cncc(-c2ccc3[nH]nc(-c4ncc(C(=O)NCCC5CCOCC5)[nH]4)c3c2)c1C [Example 243, 2-(5-{5-[(ethylamino)methyl]-4-methylpyridin-3-yl}-1H-indazol-3-yl)-N-[2-(tetrahydro-2H-pyran-4-yl)ethyl]-1H-imidazole-5-carboxamide] |
| 70 | CCNCc1cncc(-c2ccc3[nH]nc(-c4ncc(C(=O)NCCO)[nH]4)c3c2)c1C [Example 153, 2-(5-{5-[(ethylamino)methyl]-4-methylpyridin-3-yl}-1H-indazol-3-yl)-N-(2-hydroxyethyl)-1H-imidazole-5-carboxamide] |
| 58 | CCNCc1cncc(-c2ccc3[nH]nc(-c4ncc(C(=O)N5CCN(c6cnccn6)CC5)[nH]4)c3c2)c1C [Example 145] |
| 79 | CCNCc1cncc(-c2ccc3[nH]nc(-c4ncc(C(=O)N5CCc6ncsc6C5)[nH]4)c3c2)c1C [Example 217, [(5-{3-[5-(6,7-dihydro[1,3]thiazolo[5,4-c]pyridin-5(4H)-ylcarbonyl)-1H-imidazol-2-yl]-1H-indazol-5-yl}-4-methylpyridin-3-yl)methyl]ethylamine] |
| 71 | CCNCc1cncc(-c2ccc3[nH]nc(-c4ncc(C(=O)N5CCC(O)(Cc6ccccc6)CC5)[nH]4)c3c2)c1C [Example 141, 4-benzyl-1-{[2-(5-{5-[(ethylamino)methyl]-4-methylpyridin-3-yl}-1H-indazol-3-yl)-1H-imidazol-5-yl]carbonyl}pipendin-4-ol] |
| 67 | CCNCc1cncc(-c2ccc3[nH]nc(-c4ncc(C(=O)NC5CCC5)[nH]4)c3c2)c1C [Example 135, N-cyclobutyl-2-(5-{5-[(ethylamino)methyl]-4-methylpyridin-3-yl}-1H-indazol-3-yl)-1H-imidazole-5-carboxamide] |
| 41 | CCNCc1cncc(-c2ccc3[nH]nc(-c4ncc(C(=O)NCCCSC)[nH]4)c3c2)c1C [Example 174, 2-(5-{5-[(ethylamino)methyl]-4-methylpyridin-3-yl}-1H-indazol-3-yl)-N-[3-(methylthio)propyl]1H-imidazole-5-carboxamide] |
| 69 | CCCCN(CCC#N)C(=O)c1cnc(-c2n[nH]c3ccc(-c4cncc(CNCC)c4C)cc23)[nH]1 [Example 164, N-butyl-N-(2-cyanoethyl)-2-(5-{5-[(ethylamino)methyl]4-methylpyridin-3-yl}-1H-indazol-3-yl)-1H-imidaole-5-carboxamide] |
| 45 | CCNCc1cncc(-c2ccc3[nH]nc(-c4ncc(C(=O)N[C@H](CO)Cc5ccc(O)cc5)[nH]4)c3c2)c1C [Example 173] |
| 30 | CCNCc1cncc(-c2ccc3[nH]nc(-c4ncc(C(=O)N(CCO)C5CCCCC5)[nH]4)c3c2)c1C [Example 245, N-cyclohexyl-2-(5-{5-[(ethylamino)methyl]-4-methylpyridin-3-yl}-1H-indazol-3-yl)-N-(2-hydroxyethyl)-1H-imidazole-5-carboxamide] |
| 71 | CCNCc1cncc(-c2ccc3[nH]nc(-c4ncc(C(=O)N5CCC(S(C)(=O)=O)C5)[nH]4)c3c2)c1C (stereo not shown) [Example 240] |
| 64 | CCNCc1cncc(-c2ccc3[nH]nc(-c4ncc(C(=O)NCCc5cccc(OC)c5)[nH]4)c3c2)c1C [Example 114, 2-(5-{5-[(ethylamino)methyl]-4-methylpyridin-3-yl}-1H-indazol-3-yl)-N-[2-(3-methoxyphenyl)ethyl]-1H-imidazole-5-carboxamide] |
| 28 | CCNCc1cncc(-c2ccc3[nH]nc(-c4ncc(C(=O)NCCCN5CCCC5=O)[nH]4)c3c2)c1C [Example 130] |
| 47 | CCNCc1cncc(-c2ccc3[nH]nc(-c4ncc(C(=O)N5Cc6ccccc6C(c6ccccn6)C5)[nH]4)c3c2)c1C (stereo not shown) [Example 218, ethyl{[4-methyl-5-(3-{5-[(4-pyridin-2-yl-3,4-dihydroisoquinolin-2(1H)-yl)carbonyl]-1H-imidazxol-2-yl}-1H-indazol-5-yl)pyridin-3-yl]methyl}amine] |
| 69 | CCNCc1cncc(-c2ccc3[nH]nc(-c4ncc(C(=O)N5CCC(Cc6ccc(C(N)=O)cc6)CC5)[nH]4)c3c2)c1C [Example 263, 4-[(1-{[2-(5-{5-[(ethylamino)methyl]-4-methylpyridin-3-yl}-1H-indazol-3-y)-1H-imidazol-5-yl]carbonyl}piperidin-4-yl)methyl]benzamide] |
| 40 | CCNCc1cncc(-c2ccc3[nH]nc(-c4ncc(C(=O)NCc5nnc(-c6ccccc6OC)o5)[nH]4)c3c2)c1C [Example 255, 2-(5-{5-[(ethylamino)methyl]-4-methylpyridin-3-yl}-1H-indazol-3-yl)-N-{[5-(2-methoxyphenyl)-1,3,4-oxadiazol-2-yl]methyl}-1H-imidazole-5-carboxamide] |
| 71 | CCNCc1cncc(-c2ccc3[nH]nc(-c4ncc(C(=O)N5CCC(Oc6ccccc6)CC5)[nH]4)c3c2)c1C [Example 196, ethyl{[4-methyl-5-(3-{5-[(4-phenoxypiperidin-1-yl)carbonyl]-1H-imidazol-2-yl]-1H-indazol-5-yl)pyridin-3-yl]methyl}amine] |
| 77 | CCNCc1cncc(-c2ccc3[nH]nc(-c4ncc(C(=O)NC[C@]5(O)CC[C@H](c6ccccc6)CC5)[nH]4)c3c2)c1C [Example 204, 2-(5-{5-[(ethylamino)methyl]-4-methylpyridin-3-yl}-1H-indazol-3-yl)-N-[(trans-1-hydroxy-4-phenylcyclohexyl)methyl]-1H-imidazole-5-carboxamide] |
| 26 | CCNCc1cncc(-c2ccc3[nH]nc(-c4ncc(C(=O)N5CCC(n6c(C)nc7cnccc76)CC5)[nH]4)c3c2)c1C [Example 247, ethyl({4-methyl-5-[3-(5-{[4-(2-methyl-1H-imidazol[4,5-c]pyridin-1-yl)piperidin-1-yl]carbonyl}-1H-imidazol-2-yl)-1H-indazol-5-yl]pyridin-3-yl}methyl)amine] |
| 55 | CCNCc1cncc(-c2ccc3[nH]nc(-c4ncc(C(=O)NCC56C=CC(O5)[C@H]5C(=O)N(C)C(=O)[C@H]56)[nH]4)c3c2)c1C (stereo partly drawn) [Example 208, 2-(5-{5-[(ethylamino)methyl]-4-methylpyridin-3-yl}-1H-indazol-3-yl)-N-{[(3aR,7aS)-2-methyl-13-dioxo-1,2,3,3a,7,7a-hexahydro-4H-4,7-epoxyisoindol-4-yl]methyl}-1H-imidazole-5-carboxamide] |
| 30 | CCNCc1cncc(-c2ccc3[nH]nc(-c4ncc(C(=O)N5CCCN(Cc6ccc(F)cc6)CC5)[nH]4)c3c2)c1C [Example 222, ethyl({5-[3-(5-{[4-(4-fluorobenzyl)-1,4-diazxepan-1-yl]carbonyl}1H-imidazol-2-yl)-1H-indazol-5-yl]-4-methylpyridin-3-yl}methyl)amine] |
